Test [1] relates to primary rat cortical neurons. Description: neurite outgrow with primary rat cortical neurons (FIGS. 4, 5; Sholl analysis). It counts as cell-based. The conditions noted are these: FIG. 4. From the text: FIGS. 4 and 5 show the effect of FKBP12 ligands on neurite outgrow with primary rat cortical neurons.
For test [2], the target named is FKBP12 (Homo sapiens, UniProt P62942). Kind of test: secondary assays with isothermal titration calorimetry and 2D NMR (FIGS. 2, 3). It counts as binding. From the text:
The ligand concentration chart refers to the compound having the formula VIII (i.e., p-toluoylthioacetylmorpholine) used as the ligand.
On the technique in general: In ITC the heat of successive injections is recorded.

FKBP12, sequence (P62942 whole entry, species assumed): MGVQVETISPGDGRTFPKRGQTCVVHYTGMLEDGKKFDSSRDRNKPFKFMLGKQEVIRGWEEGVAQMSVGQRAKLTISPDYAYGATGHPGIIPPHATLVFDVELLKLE

Regarding `CC(C)c1ccc(SCC(=O)N2CCOCC2C(=O)OCCCc2cccnc2)cc1` (centres unmarked) [Compound VII, 3-(pyridine-3-yl)propyl 4-(2-(4-isopropylphenylthio)acetyl)morpholine-3-carboxylate], the “effect on neurite outgrow” value in test [1] is “particularly substantial”.
Take `Cc1ccc(SCC(=O)N2CCOCC2)cc1` [VIII]: binding in test [2] was characterised by a dissociation constant (Kd) of 4 µM.
